Measurements: patent US20120201915A1, “THERAPEUTIC COMPOSITION” (priority 2009, published 2012)

System: contact dermatitis from poison sumac
Experiment: Case-study: contact dermatitis from poison sumac
Format: in vivo, human
Conditions: used by the patient before Composition I
From the text: In one case-study, a patient had contact dermatitis from poison sumac which was on the volar surfaces of both arms from the hand to the elbow. […] They continued application of the Composition I, TID (three daily doses), and by four days, their skin had healed.

C[C@]12CCC(=O)C=C1CC[C@@H]1[C@@H]2C(=O)C[C@@]2(C)[C@H]1CC[C@]2(O)C(=O)CO [cortisone]
relief from earlier topical treatments: without relief
